Values after ≈ are worked out from the molar mass of the structure shown.
Key:
[1] = test system: XTB strain (extremly resistant clinical isolate); experiment: MIC and MBC, classical method (liquid Shkolnikova medium, Lowenstein-Jensen medium); assay type: cell-based, Mycobacterium tuberculosis
[2] = test system: HSRE resistant strain (multiresistant clinical isolate); experiment: as above; assay type: cell-based, Mycobacterium tuberculosis

SMILES | MBC ([1]; Mycobacterium tuberculosis) | MIC ([1]; Mycobacterium tuberculosis) | MBC ([2]; Mycobacterium tuberculosis) | MIC ([2]; Mycobacterium tuberculosis) | MIC ([1]; X TB strain (extremly resistant)) | MIC ([2]; HSRE resistant strain (multiresistant))
CN(Cc1ccccc1)c1nc(=O)c2cc(Cl)cc([N+](=O)[O-])c2s1 [Compound 10, 2-[Benzyl(methyl)amino]-6-chloro-8-nitro-4H-1,3-benzothiazin-4-one] | 0.39 µg/mL (≈ 1.08 µM) | < 0.39 µg/mL | 1.56 µg/mL (≈ 4.31 µM) | 1.56 µg/mL (≈ 4.31 µM) | – | –
NNC(=O)c1ccncc1 [Isoniazid (INH), Isoniazid, reference compound] | – | – | – | – | Not active | Not active
O=c1nc(NCc2ccccc2)sc2c([N+](=O)[O-])cc(C(F)(F)F)cc12 [Compound 8, 2-(Benzylamino)-8-nitro-6-(trifluoromethyl)-4H-1,3-benzothiazin-4-one] | 1.56 µg/mL (≈ 4.09 µM) | 0.78 µg/mL (≈ 2.05 µM) | 1.56 µg/mL (≈ 4.09 µM) | 0.78 µg/mL (≈ 2.05 µM) | – | –
CN(Cc1ccccc1)c1nc(=O)c2cc(C(F)(F)F)cc([N+](=O)[O-])c2s1 [Compound 5, 2-[Benzyl(methyl)amino]-8-nitro-6-(trifluoromethyl)-4H-1,3-benzothiazin-4-one] | 3.12 µg/mL (≈ 7.89 µM) | 1.56 µg/mL (≈ 3.95 µM) | 3.12 µg/mL (≈ 7.89 µM) | 1.56 µg/mL (≈ 3.95 µM) | – | –

— US8440842B2, “Antimicrobial compounds, their synthesis and their use for treatment of mammalian infections” (Leibniz-Institut fuer Naturstoff-Forschung und …, priority 2007, dated 2013)
